For data set [1], the system named is cIAP2−/− and control mice. The following applies: LPS 0 μg/kg, D-galactosamine 0.6 g/kg i.p. From the text:
In addition, we exposed cIAP2^−/− mice to a second mode of LPS-induced toxicity, where treatment with D-galactosamine (DGLBN) sensitized mice to endotoxic shock.

For the next data set, the system named is spleen derived T cells. The experiment in a line: Dexamethasone-induced death of T cells pre-incubated with IL-7. The class given is cell-based, mouse. The following applies: dexamethasone 100 nM. On the procedure: Peritoneal-derived macrophages from cIAP2^−/− (lower panels) and cIAP2^+/+ mice (upper panels) were either pre-treated with LPS for 4 h or not pre-treated prior to exposure to α-Fas antibody and then TUNEL stained to assess cell viability (A). Percentages of viable cells (n=5, average of triplicate wells per mouse, P values were <0.01) are shown within each TUNEL stained panel along with the standard deviation. cIAP2^−/−-derived (open shapes) and cIAP2^+/+-derived (solid shapes) T cells were pre-incubated with a range of IL-7 concentrations and then exposed to dexamethasone and T cell survival was monitored over a 12 h period (B) (n=3, average of triplicate wells per mouse, results are mean±s.d., P values at the 12 h point were <0.05). Peritoneal-derived cell numbers are shown for macrophages of cIAP2^−/− mice and littermate control cIAP2^+/+ mice injected i.p. with LPS(C). […]
Confluent primary cultures of peritoneal-derived macrophages were either pre-treated with LPS (10 μg/ml, 4 h) or not pre-treated prior to exposure to α-Fas antibody (20 μg/ml, clone Jo2) and then TUNEL stained (Roche) to assess cell viability. Primary cultures of spleen derived T cells were pre-incubated with a range of IL-7 concentrations (0, 5, and 10 ng/ml) and then exposed to dexamethasone (100 nM) and T cell survival was monitored over a 12 h period.

Where two headings read alike, the source gives them in different places.

As to `N[C@H]1C(O)O[C@H](CO)[C@H](O)[C@@H]1O` (stereo partly drawn) [D-galactosamine], the Survival in data set [1] (cIAP2+/+ mice) and in data set [1] (cIAP2−/− mice) was 6/6 throughout.

B1: IL-7: cIAP2-inducing agent that imparts T cells with increased apoptotic resistance (protein, UniProt P13232 26-177, looked up)
Interleukin-7: DCDIEGKDGKQYESVLMVSIDQLLDSMKEIGSNCLNNEFNFFKRHICDANKEGMFLFRAARKLRQFLKMNSTGDFDLHLLKVSEGTTILLNCTGQVKGRKPAALGEAQPTKSLEENKSLKEQKKLNDLCFLKRLLQEIKTCWNKILMGTKEH
As for B1, the “Resistance to apoptosis with or without IL-7 pretreatment” value with spleen derived T cells (cIAP2−/− T cells) is “displayed no difference in the resistance to apoptosis”. Moreover, the “Resistance against dexamethasone-induced death after IL-7 pre-exposure” value in the data set with spleen derived T cells (wild-type T cells, IL-7 5 or 10 ng/ml) was “showed a dose dependent resistance against dexamethasone-induced death”.

For the origin of these results see patent US20060123501A1, “Method for treating inflammatory disorders” (priority 2004, published 2006).
